In patent US20260137819A1 (Radionetics Oncology, Inc., priority 2022, published 2026):

Biological target: T1, human follicle-stimulating hormone receptor (FSHR) (Homo sapiens, UniProt P23945)
T1 construct: host or cells: CHO-K1
T1 sequence (P23945 18-695): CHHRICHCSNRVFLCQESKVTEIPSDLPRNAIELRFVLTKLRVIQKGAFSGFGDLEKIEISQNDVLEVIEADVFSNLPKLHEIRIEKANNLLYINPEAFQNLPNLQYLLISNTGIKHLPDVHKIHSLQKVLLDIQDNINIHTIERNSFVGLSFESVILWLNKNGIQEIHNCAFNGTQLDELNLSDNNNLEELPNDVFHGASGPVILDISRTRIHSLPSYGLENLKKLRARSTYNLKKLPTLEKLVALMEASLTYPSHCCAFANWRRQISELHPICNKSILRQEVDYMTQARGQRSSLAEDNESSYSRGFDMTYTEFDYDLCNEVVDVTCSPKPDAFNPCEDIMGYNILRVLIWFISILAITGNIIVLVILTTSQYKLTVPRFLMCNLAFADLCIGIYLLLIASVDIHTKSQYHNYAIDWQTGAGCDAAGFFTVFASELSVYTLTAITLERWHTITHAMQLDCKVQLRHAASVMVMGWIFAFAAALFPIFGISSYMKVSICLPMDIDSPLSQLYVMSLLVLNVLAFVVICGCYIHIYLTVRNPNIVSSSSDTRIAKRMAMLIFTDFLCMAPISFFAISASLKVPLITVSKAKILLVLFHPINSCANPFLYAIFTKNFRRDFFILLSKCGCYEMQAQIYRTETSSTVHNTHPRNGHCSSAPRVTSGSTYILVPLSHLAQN
Test: Measurement of agonist cAMP production by activation of human FSHR
Type: cell-based
Settings: CHO-K1 human FSHR cells, 30 minutes at 37° C., HTRF cAMP kit; read-out: hFSHR Agonist cAMP EC50
Experimental: Measurement of agonist cAMP production by activation of human FSHR
Two days prior to the assay, 5,000 CHO—K1 human FSHR cells (Eurofins #95-0119C2) stably expressing the functional human follicle-stimulating hormone receptor were plated in a 96-well tissue culture-treated plate in growth media supplemented with the appropriate selection agent. […] The cells were incubated for 30 minutes at 37° C. (the final concentrations of the compound ranged from 0-10,000 nM). After the 30-minute incubation at 37° C., lysis buffer (HRTF CAMP kit, Cisbio #62AM5PEB)w as added directly to the cells and incubated for 30-minutes at room temperature. The diluted lysate was transferred and CAMP detection and visualization antibodies (HRTF CAMP kit, Cisbio #62AM5PEB) were added and incubated for 1-24 hours at room temperature. The time-resolved fluorescent signal was read with a Tecan M1000Pro (Tecan) multiplate reader. The intracellular cAMP concentrations were calculated by regression to a standard curve and were plotted vs. the concentration of the agonists. The concentration of test compound or FSH required to generate a half maximal response EC50 were calculated using standard curve-fitting methods. All data manipulations were performed using GraphPad Prism v9.3.1 (GraphPad, San Diego, CA).

SMILES	EC50 [nM]
COc1cc2c(cc1-c1cccc(NC(=O)NCCOCCOCCOCCOCCOCCOCCNC(=O)CN3CCN(CC(=O)O)CCN(CC(=O)O)CCN(CC(=O)O)CC3)c1)-c1c(c(C(=O)N(C)C(C)(C)C)nn1-c1cc(Cl)cc(Cl)c1)CO2 [Compound 1, 2,2′,2″-(10-(1-((3-(3-(tert-butyl(methyl)carbamoyl)-1-(3,5-dichlorophenyl)-7-methoxy-1,4-dihydrochromeno[4,3-c]pyrazol-8-yl)phenyl)amino)-1,24-dioxo-5,8,11,14,17,20-hexaoxa-2,23-diazapentacosan-25-yl)-1,4,7,10-tetraazacyclododecane-1,4,7-triyl)triacetic acid]	< 10
COc1cc2c(cc1-c1cccc(NC(=O)NCCOCCOCCOCCOCCNC(=O)CN3CCN(CC(=O)O)CCN(CC(=O)O)CCN(CC(=O)O)CC3)c1)-c1c(c(C(=O)N(C)C(C)(C)C)nn1-c1cc(Cl)cc(Cl)c1)CO2 [Compound 2, 2,2′,2″-(10-(1-((3-(3-(tert-butyl(methyl)carbamoyl)-1-(3,5-dichlorophenyl)-7-methoxy-1,4-dihydrochromeno|4,3-c|pyrazol-8-yl)phenyl)amino)-1,18-dioxo-5,8,11,14-tetraoxa-2,17-diazanonadecan-19-yl)-1,4,7,10-tetraazacyclododecane-1,4,7-triyl)triacetic acid]	< 10
COc1cc2c(cc1-c1cccc(NC(=O)CCOCCOCCOCCOCCOCCOCCNC(=O)CN3CCN(CC(=O)O)CCN(CC(=O)O)CCN(CC(=O)O)CC3)c1)-c1c(c(C(=O)N(C)C(C)(C)C)nn1-c1cc(Cl)cc(Cl)c1)CO2 [Compound 3A, indium (III) 2,2′,2″-(10-(24-((3-(3-(tert-butyl(methyl)carbamoyl)-1-(3,5-dichlorophenyl)-7-methoxy-1,4-dihydrochromeno[4,3-c]pyrazol-8-yl)phenyl)amino)-2,24-dioxo-6,9,12,15,18,21-hexaoxa-3-azatetracosyl)-1,4,7,10-tetraazacyclododecane-1,4,7-triyl)triacetate]	< 10
COc1cc2c(cc1-c1cccc(C(=O)NCCOCCOCCOCCOCCOCCOCCNC(=O)CN3CCN(CC(=O)O)CCN(CC(=O)O)CCN(CC(=O)O)CC3)c1)-c1c(c(C(=O)N(C)C(C)(C)C)nn1-c1cc(Cl)cc(Cl)c1)CO2 [Compound 4]	< 10
COc1cc2c(cc1-c1ccc(NC(=O)NCCOCCOCCOCCOCCOCCOCCNC(=O)CN3CCN(CC(=O)O)CCN(CC(=O)O)CCN(CC(=O)O)CC3)cc1)-c1c(c(C(=O)N(C)C(C)(C)C)nn1-c1cc(Cl)cc(Cl)c1)CO2 [Compound 5, 2,2′,2″-(10-(1-((4-(3-(tert-butyl(methyl)carbamoyl)-1-(3,5-dichlorophenyl)-7-methoxy-1,4-dihydrochromeno[4,3-c]pyrazol-8-yl)phenyl)amino)-1,24-dioxo-5,8,11,14,17,20-hexaoxa-2,23-diazapentacosan-25-yl)-1,4,7,10-tetraazacyclododecane-1,4,7-triyl)triacetic acid]	10 to 100
COc1cc2c(cc1-c1ccc(NC(=O)NCCOCCOCCOCCOCCOCCOCCNC(=O)CN3CCN(CC(=O)O)CCN(CC(=O)O)CCN(CC(=O)O)CC3)cc1)-c1c(c(C(=O)N(C)C(C)(C)C)nn1-c1cc(Cl)cc(Cl)c1)CO2 [Compound 5A, indium (III) 2,2′,2″-(10-(1-((4-(3-(tert-butyl(methyl)carbamoyl)-1-(3,5-dichlorophenyl)-7-methoxy-1,4-dihydrochromeno[4,3-c]pyrazol-8-yl)phenyl)amino)-1,24-dioxo-5,8,11,14,17,20-hexaoxa-2,23-diazapentacosan-25-yl)-1,4,7,10-tetraazacyclododecane-1,4,7-triyl)triacetate]	< 10
COc1cc2c(cc1-c1ccc(NC(=O)NCCOCCOCCOCCOCCNC(=O)CN3CCN(CC(=O)O)CCN(CC(=O)O)CCN(CC(=O)O)CC3)cc1)-c1c(c(C(=O)N(C)C(C)(C)C)nn1-c1cc(Cl)cc(Cl)c1)CO2 [Compound 6, 2,2′,2″-(10-(1-((4-(3-(tert-butyl(methyl)carbamoyl)-1-(3,5-dichlorophenyl)-7-methoxy-1,4-dihydrochromeno|4,3-clpyrazol-8-yl)phenyl)amino)-1,18-dioxo-5,8,11,14-tetraoxa-2,17-diazanonadecan-19-yl)-1,4,7,10-tetraazacyclododecane-1,4,7-triyl)triacetic acid]	< 10
COc1cc2c(cc1-c1cccc(NC(=O)NCCOCCOCCOCCOCCOCCOCCNC(=O)CN3CCN(CC(=O)O)CCN(CC(=O)O)CCN(CC(=O)O)CC3)c1)-c1c(c(C(=O)N3CCOCC3(C)C)nn1-c1cc(Cl)cc(Cl)c1)CO2 [Compound 7]	< 10
COc1cc2c(cc1-c1cccc(NC(=O)NCCOCCOCCOCCOCCNC(=O)CN3CCN(CC(=O)O)CCN(CC(=O)O)CCN(CC(=O)O)CC3)c1)-c1c(c(C(=O)N3CCOCC3(C)C)nn1-c1cc(Cl)cc(Cl)c1)CO2 [Compound 8, 2,2′,2″-(10-(1-((3-(1-(3,5-dichlorophenyl)-3-(3,3-dimethylmorpholine-4-carbonyl)-7-methoxy-1,4-dihydrochromeno[4,3-c]pyrazol-8-yl)phenyl)amino)-1,18-dioxo-5,8,11,14-tetraoxa-2,17-diazanonadecan-19-yl)-1,4,7,10-tetraazacyclododecane-1,4,7-triyl)triacetic acid]	10 to 100

Results, then the compound that gave them:

EC50 [nM]	SMILES
< 10	COc1cc2c(cc1-c1cccc(NC(=O)CCCCCNC(=O)C(CS(=O)(=O)O)NC(=O)CN3CCN(CC(=O)O)CCN(CC(=O)O)CCN(CC(=O)O)CC3)c1)-c1c(c(C(=O)N3CCOCC3(C)C)nn1-c1cc(Cl)cc(Cl)c1)CO2 (stereo in doubt) [Compound 64, (R)-2,2′,2″-(10-(2-((1-((6-((3-(1-(3,5-dichlorophenyl)-3-(3,3-dimethylmorpholine-4-carbonyl)-7-methoxy-1,4-dihydrochromeno[4,3-c]pyrazol-8-yl)phenyl)amino)-6-oxohexyl)amino)-1-oxo-3-sulfopropan-2-yl)amino)-2-oxoethyl)-1,4,7,10-tetraazacyclododecane-1,4,7-triyl)triacetic acid]
< 10	COc1cc2c(cc1-c1cccc(NC(=O)NCCOCCOCCOCCOCCNC(=O)CN3CCN(CC(=O)O)CCN(CC(=O)O)CCN(CC(=O)O)CC3)c1)-c1c(c(C(=O)N3CCOCC3(C)C)nn1-c1cc(Cl)cc(Cl)c1)CO2 [Compound 8A]
10 to 100	COc1cc2c(cc1-c1cccc(NC(=O)C3CCN(C(=O)CN4CCN(CC(=O)O)CCN(CC(=O)O)CCN(CC(=O)O)CC4)CC3)c1)-c1c(c(C(=O)N3CCOCC3(C)C)nn1-c1cc(Cl)cc(Cl)c1)CO2 [Compound 9, 2,2′,2″-(10-(2-(4-((3-(1-(3,5-dichlorophenyl)-3-(3,3-dimethylmorpholine-4-carbonyl)-7-methoxy-1,4-dihydrochromeno[4,3-c]pyrazol-8-yl)phenyl)carbamoyl)piperidin-1-yl)-2-oxoethyl)-1,4,7,10-tetraazacyclododecane-1,4,7-triyl)triacetic acid]
< 10	COc1cc2c(cc1-c1cccc(NC(=O)NCCNC(=O)CCOCCNC(=O)CN3CCN(CC(=O)O)CCN(CC(=O)O)CCN(CC(=O)O)CC3)c1)-c1c(c(C(=O)N3CCOCC3(C)C)nn1-c1cc(Cl)cc(Cl)c1)CO2 [Compound 10, 2,2′,2″-(10-(1-((3-(1-(3,5-dichlorophenyl)-3-(3,3-dimethylmorpholine-4-carbonyl)-7-methoxy-1,4-dihydrochromeno[4,3-c]pyrazol-8-yl)phenyl)amino)-1,6,13-trioxo-9-oxa-2,5,12-triazatetradecan-14-yl)-1,4,7,10-tetraazacyclododecane-1,4,7-triyl)triacetic acid]
